Values quoted from earlier work in patent US20200397798A1, “COMBINATION THERAPIES WITH FARNESOID X RECEPTOR (FXR) MODULATORS” (Akarna Therapeutics, Ltd., priority 2016, published 2020).
Entries after “also recorded” stand apart in the source; their conditions may differ.

Key:
[1] = system: CGD-susceptible C57L mice; settings: lithogenic diet supplemented with GW4064, 1 week
ob/ob and db/db mice = settings: mouse, in vivo
mice = settings: in vivo
[2] = system: DSS- and TNBS-induced intestinal inflammation; settings: wild type, but not Fxr−/− mice
[3] = system: patients with biopsy-proven NASH; settings: OCA arm, 25 mg orally daily
KK-A(y) mice = settings: mouse, in vivo
[4] = system: C57BL/6 mice fed an MCD diet
[5] = system: plasma triglyceride levels; settings: human, in vivo

## CC(C)c1onc(-c2c(Cl)cccc2Cl)c1COc1ccc(/C=C/c2cccc(C(=O)O)c2)c(Cl)c1 [GW4064]
[1]
  CGD onset: prevented CGD onset
T84 cells
  Cl− secretory responses to Ca2+ and cAMP-dependent agonists: attenuated
  nuclear translocation of the receptor (FXR): induced nuclear translocation
ob/ob and db/db mice
  liver steatosis: able to prevent liver steatosis
mice
  ovalbumin-induced diarrhea and cholera toxin-induced intestinal fluid accumulation: reduced

## CC[C@H]1[C@@H](O)[C@@H]2[C@H](CC[C@]3(C)[C@@H]([C@H](C)CCC(=O)O)CC[C@@H]23)[C@@]2(C)CC[C@@H](O)C[C@@H]12 [Compound 6-ECDCA]
[2]
  expression of proinflammatory cytokines, chemokines and their receptors: repressed

## CC[C@H]1[C@@H](O)[C@@H]2[C@H](CC[C@]3(C)[C@@H]([C@H](C)CCC(=O)O)CC[C@@H]23)[C@@]2(C)CC[C@@H](O)C[C@@H]12 [OCA, obeticholic acid]
[3]
  change in HDL, total cholesterol and LDL compared to placebo: decrease in the high-density lipoprotein (HDL) and an increase in the total cholesterol and low-density lipoprotein (LDL)

## C[C@H](CCC(=O)O)[C@H]1CC[C@H]2[C@@H]3[C@H](O)C[C@@H]4C[C@H](O)CC[C@]4(C)[C@H]3C[C@H](O)[C@]12C [CA]
KK-A(y) mice
  hepatic TG accumulation and VLDL secretion: prevented

## CC(C)OC(=O)C1=CN(C(=O)c2ccc(F)c(F)c2)CC(C)(C)c2c1[nH]c1ccccc21 [WAY-362450]
[4]; 4 weeks treatment
  elevations of serum ALT and AST induced by the MCD diet: markedly reduced
[4]; FXR−/− mice fed an MCD diet
  hepatoprotective effects in FXR−/− mice: abolished

## C[C@H](CCC(=O)O)[C@H]1CC[C@H]2[C@@H]3[C@H](O)C[C@@H]4C[C@H](O)CC[C@]4(C)[C@H]3CC[C@]12C [CDCA, chenodeoxycholic acid]
[5]
  plasma triglyceride levels: decreased circulating TG levels; also recorded: reduces plasma triglyceride levels
